From publication PMC8283942 (Journal of the American Chemical Society, 2021)

Biological target: SsTyrH (heme-dependent L-tyrosine hydroxylase)
Experiment: UV–vis substrate titration
Format: binding, Streptomyces sclerotialus

**Q.** For N[C@@H](Cc1ccc(O)cc1)C(=O)O [Tyr, L-tyrosine], which Kd is on record?
**A.** 109 ± 5 µM
